In PMC11111895, “Identification of a dCache-type chemoreceptor in Campylobacter jejuni that specifically mediates chemotaxis towards methyl pyruvate” (Frontiers in Microbiology, 2024):
Read-outs that look alike come from different tables or passages of the source.

Assays:
Tlp11-LBD [1] = assay: Microscale thermophoresis (MST) of Tlp11-LBD; assay type: binding, C. jejuni ATCC 33560; settings: for Kd: 250 nM protein
Procedure: The His-tag dye (MO-L018 RED-tris-NTA, NanoTemper, Germany) was adjusted to a final concentration of 25 nM and used to label the purified protein with a His-tag. The compound was diluted to a series of concentrations in phosphate-buffered saline ([Duan et al., 2023]) with 0.05% Tween 20 (PBS-T) buffer and mixed in a ratio of 1:1 with protein. The mixtures were loaded into capillaries (Monolith™ Series capillaries, NanoTemper) by means of capillary action. Thermophoresis was measured using a Monolith™ NT.115 (NanoTemper) instrument, with 40% excitation and 40% MST power configuration. The time-traces of changes in fluorescence, which reflected the thermophoretic movement of labeled protein affected by different concentrations of compound were recorded, and the dose–response curves were fitted with the ‘temperature jump and thermophoresis’ mode. Data analysis was performed using MO. Affinity Analysis version 2.3 (NanoTemper) and Prism version 8.0.2 (GraphPad Software, United States).
MST quantifies interaction affinities by detecting the direct movement of fluorescent molecules along temperature gradients in capillaries. Ligand binding changes the thermophoretic movement of proteins, which can be used to derive Kds, by sequentially scanning capillaries with different ligand concentrations. MST has been applied to the study of weak binding systems and validated to provide reliable results ([Linke et al., 2016]; [Gao et al., 2021]). […] We also tested the binding abilities of methyl pyruvate analogues to Tlp11-LBD using MST (Supplementary Table S3).

[2] = test system: C. jejuni WT NCTC 11168 cells; assay type: cell-based, Campylobacter jejuni
[3] = test system: C. jejuni 11168ΩTlp11/ΔCheY; assay type: cell-based, Campylobacter jejuni
[4] = test system: C. jejuni NCTC 11168ΩTlp11 cells; assay type: cell-based, Campylobacter jejuni
Tlp11-LBD [5] = test system: Tlp11-LBD; design: method as in Day et al., 2016; settings: ref Day et al., 2016; cited from earlier work
H. pylori = test system: H. pylori; design: method as in Matilla and Krell, 2023; Zhou et al., 2023; settings: increase from 25 upon combination with amoxicillin and clarithromycin, clinical studies, ref Matilla and Krell, 2023, Zhou et al.; cited from earlier work
C. jejuni ATCC 33560 = assay: Growth curves in Minimal Essential Medium; assay type: cell-based, Campylobacter jejuni; settings: Minimal Essential Medium with fetal bovine serum, shaking; methyl pyruvate at concentrations above 1 mM
Procedure: The C. jejuni ATCC 33560, C. jejuni WT NCTC 11168 and 11168ΩTlp11 cells were grown on a MH agar plate overnight, at 37°C, under microaerobic conditions. The colonies were suspended in PBS ([Duan et al., 2023]), pH 7.2, inoculated into Minimal Essential Medium broth (Life Technologies) containing 10% fetal bovine serum to an initial OD600 of 0.01, and grown at 37°C, 100 rpm, under microaerobic conditions. When required, Minimal Essential Medium was supplemented with different concentrations of methyl pyruvate or pyruvate (both from Macklin, China).

[6] = test system: Tlp11[1-342]-Tar[200-553] (Tlp342Tar200); assay: Microfluidic chemotaxis of E. coli expressing hybrid chemoreceptor Tlp342Tar200; assay type: cell-based, E. coli VS188; settings: for effect on chemotaxis towards methyl pyruvate of E. coli with Tlp342Tar200 / effect on responses to glucose of E. coli with Tlp342Tar200: cells incubated in 10 mM compound; for chemotactic response of E. coli expressing Tlp342Tar200 as the sole receptor: microfluidic device, 50 min
Procedure: The E. coli cells expressing hybrid chemoreceptor and GFP were grown in tryptone broth, up to an OD600 of 0.55, at 34°C, with shaking at 250 rpm. The cells were harvested by means of centrifugation at 5,000 rpm, washed twice with Tethering Buffer (10 mM KH2PO4, 10 mM K2HPO4, and 0.1 mM EDTA, pH 7.0), and resuspended in Tethering Buffer such that an OD600 of 5.5 was attained. The chemotactic responses of E. coli cells to the compounds were measured using a microfluidic device ([Si et al., 2012]). The collected E. coli cells were added to the sink pores of the device and allowed to freely diffuse into the observation channel for 40 min. Subsequently, the compound solution was added to the source pores, to establish a concentration gradient gradually in the observation channel of the device. Fluorescence intensity in the observation channel was detected using an LSM 800 laser scanning confocal microscope (Zeiss, Germany). Data were analyzed using ImageJ software.
To determine whether methyl pyruvate stimulates transmembrane signaling through Tlp11-LBD, we fused C. jejuni ATCC 33560 Tlp11-LBD with the cytoplasmic region of the E. coli chemoreceptor Tar to construct Tlp11-Tar hybrid chemoreceptors (Figure 3A). Five hybrid receptors with different fusion positions in the second transmembrane helix (TM2) were obtained: Tlp11[1-342]-Tar[200-553] (Tlp342Tar200), Tlp11[1-343]-Tar[200-553] (Tlp343Tar200), Tlp11[1-346]-Tar[204-553] (Tlp346Tar204), Tlp11[1-347]-Tar[204-553] (Tlp347Tar204), and Tlp11[1-348]-Tar[204-553] (Tlp348Tar204) (Supplementary Figure S5A). To verify the activities of these hybrid chemoreceptors, we expressed each protein as a chimera in green fluorescent protein (GFP)-labeled E. coli VS188 without any other chemoreceptors, such that each hybrid receptor served as the only chemoreceptor in the E. coli. […] These chemotactic responses triggered by glucose through the phosphotransferase system are independent of the chemoreceptor LBD ([Neumann et al., 2012]). […] Thus, we used this hybrid receptor for subsequent chemotaxis measurements.

[7] = methyl pyruvate at pH 7.0, read-out: Kd of Tlp11-LBD binding

## CCOC(=O)C(C)=O [ethyl pyruvate, Ethyl pyruvate]
Tlp11-LBD [1]; read-out: Kd of Tlp11-LBD binding
  Kd: 2360 ± 170 µM

## O=CO [formate]
[2]
  chemotactic response: attractive response
[3]
  chemotactic response: no chemotaxis
[4]
  chemotactic response: attractant response

## O=C[C@H](O)[C@@H](O)[C@@H](O)[C@H](O)CO [galactose]
Tlp11-LBD [5]
  binding to Tlp11-LBD: bound directly

## COc1ccc2[nH]c([S+]([O-])Cc3ncc(C)c(OC)c3C)nc2c1 (centres unmarked) [omeprazole]
H. pylori
  eradication rate of H. pylori: 95%

## CC(=O)C(=O)O [pyruvate, Pyruvate]
C. jejuni ATCC 33560
  effect on growth of C. jejuni ATCC 33560: promotion of the growth
Tlp11-LBD [1]; maximum concentration 2.5 mM
  binding to Tlp11-LBD: did not bind

## c1ccc2ncccc2c1 [quinoline, Quinoline]
[6]
  effect on chemotaxis towards methyl pyruvate of E. coli with Tlp342Tar200: lost the chemotaxis towards methyl pyruvate
  effect on responses to glucose of E. coli with Tlp342Tar200: not affected
  chemotactic response of E. coli expressing Tlp342Tar200 as the sole receptor: failed to elicit a chemotactic response
[2]
  chemotactic response: neither WT NCTC 11168 nor 11168ΩTlp11 cells exhibited chemotaxis
Tlp11-LBD [1]; [7]
  Kd: 905 ± 180 µM
[4]
  chemotactic response: neither WT NCTC 11168 nor 11168ΩTlp11 cells exhibited chemotaxis

## Cc1ccccc1 [toluene, Toluene]
[6]
  effect on chemotaxis towards methyl pyruvate of E. coli with Tlp342Tar200: lost the chemotaxis towards methyl pyruvate
  effect on responses to glucose of E. coli with Tlp342Tar200: not affected
  chemotactic response of E. coli expressing Tlp342Tar200 as the sole receptor: failed to elicit a chemotactic response
[2]; WT NCTC 11168 cells, microfluidic device, 30 min
  chemotactic response: neither WT NCTC 11168 nor 11168ΩTlp11 cells exhibited chemotaxis
Tlp11-LBD [1]; [7]
  Kd: 844 ± 172 µM
[4]; 11168ΩTlp11 cells, microfluidic device, 30 min
  chemotactic response: neither WT NCTC 11168 nor 11168ΩTlp11 cells exhibited chemotaxis
